# From patent US12290651B2, “Devices and methods for the treatment of body surface disorders” (Verrica Pharmaceuticals Inc., priority 2017, dated 2025)
# Several values for one entry are separate records, joined by “and”; a condition that tells them apart may be missing. Equal values may be shown once.
# Experiment: Pharmacokinetic results from Phase II clinical trial: systemic exposure (plasma cantharidin) after topical application (Example 3)
# Type: in vivo, human
# Experimental: This example describes pharmacokinetic results from a Phase II clinical trial for the treatment of skin lesion resulting from Molluscum contagiosum. Patients received administrations of the cantharidin composition in Table 2 to Molluscum contagiosum lesions every 21 days for a maximum of 4 sessions or until complete clearance. Blood samples for systemic exposure evaluation were collected on Day 1, prior to the drug application, and 2 (±30 minutes), 6 (±1 hour) and 24 (±3 hours) hours post-application. The average age of the subjects was 7±3.5 years. The average body weight of the subjects was 58±34.6 lb. The average number of lesions per subject was 43.7±24.2.
smiles,measurement,setting,value
C[C@@]12C(=O)OC(=O)[C@]1(C)[C@H]1CC[C@@H]2O1 [cantharidin],plasma concentration of cantharidin,"all subjects, all times sampled (2, 6, 24 hours post-application)",less than 3.3 ng/ml
same,Exposure (plasma concentration of cantharidin),"one line per subject, topical cantharidin composition of Table 2 on molluscum lesions, blood at 2, 6 and 24 hours post-application on Day 1, LLOQ 2.5 ng/ml",<2.5 ng/ml (16×) and 3.3 ng/ml
same,subjects with plasma concentration of cantharidin above the lower limit of quantification (2.5 ng/ml),seventeen subjects,Only one of the seventeen subjects
same,plasma concentration of cantharidin,"subjects as young as 2 years old, having over 100 lesions, having genital lesions, with as many as 2.26 lesions per lb: below LLOQ",< 2.5 ng/mL
